Assay results reported in ChEMBL document CHEMBL4130525, “gem-Dinitroalkyl Benzenes: A Novel Class of IOP-Lowering Agents for the Treatment of Ocular Hypertension” (ACS Med Chem Lett, 2017).
“And” between values parts separate entries of the source, which are not always exact repeats. Equal entries are not always repeated. The source made the active and inactive calls. The calls are words filed in the database; no cut-off is given here.

How the values were obtained:
[1] = Induction of NO release assessed as nitrite formation at 0.1 mM in phosphate buffer saline at pH 1.5 to 7.4 measured up to 24 hrs by Griess assay; format: functional
Oryctolagus cuniculus [2] = assay: Antiglaucoma activity in hypertonic saline-induced New Zealand albino rabbit transient ocular hypertensive model assessed as IOP lowering efficacy at 1% dose administered topically immediately after hypertonic saline injection measured at 120 mins post dose; format: functional
[3] = Induction of NO release assessed as nitrite formation at 0.1 mM in HCl at pH 1.5 in absence of L-cysteine measured after 1 hr by Griess assay; format: functional
[4] = Ionization constant, pKa of the compound in KCl at pH 1.8 by potentiometric titration; format: physicochemical
[5] = n-Octanol-water distribution coefficient, log D of the compound at pH 7.4 after 20 mins by UV-spectrphotometric based shake-flask method; format: physicochemical
[6] = Induction of NO release assessed as nitrite formation at 0.1 mM in HCl at pH 1.5 in absence of L-cysteine measured after 6 hrs by Griess assay; format: functional
Oryctolagus cuniculus [7] = assay: Antiglaucoma activity in hypertonic saline-induced New Zealand albino rabbit transient ocular hypertensive model assessed as IOP lowering efficacy at 1% dose administered topically immediately after hypertonic saline injection measured at 240 mins post dose; format: functional
[8] = Drug metabolism assessed as anisic acid formation after 24 hrs by HPLC analysis; format: physicochemical
Oryctolagus cuniculus [9] = assay: Antiglaucoma activity in hypertonic saline-induced New Zealand albino rabbit transient ocular hypertensive model assessed as IOP lowering efficacy at 1% dose administered topically immediately after hypertonic saline injection measured at 60 mins post dose; format: functional
Thoracic aorta [10] = assay: Vasodilatory activity in denuded Wistar rat thoracic aorta assessed as relaxation of L-phenylephrine-induced contractions of aortic strips; format: functional, tissue-based
[11] = Induction of NO release assessed as nitrite formation at 0.1 mM in phosphate buffer saline at pH 7.4 in presence of 5 mM of L-cysteine measured after 6 hrs by Griess assay; format: functional
[12] = Induction of NO release assessed as nitrite formation at 0.1 mM in phosphate buffer saline at pH 7.4 in absence of L-cysteine measured after 6 hrs by Griess assay; format: functional
[13] = Induction of NO release assessed as nitrite formation at 0.1 mM in phosphate buffer saline at pH 7.4 in absence of L-cysteine measured after 1 hr by Griess assay; format: functional
[14] = Induction of NO release assessed as nitrite formation at 0.1 mM in phosphate buffer saline at pH 7.4 in presence of 5 mM of L-cysteine measured after 1 hr by Griess assay; format: functional
Thoracic aorta [15] = assay: Vasodilatory activity in denuded Wistar rat thoracic aorta assessed as relaxation of L-phenylephrine-induced contractions of aortic strips in presence of 1 uM of soluble guanylate cyclase inhibitor ODQ; format: functional; design: scale not given: the % may be the effect or the level left
[16] = Induction of NO release assessed as nitrite formation at 0.1 mM in phosphate buffer saline at pH 7.4 in presence of 5 mM of L-cysteine by Griess assay; format: functional; conditions: TDE = time-dependent effect
[17] = Lipophilicity, log P of the compound by shake flask method; format: physicochemical; conditions: octanol/water
[18] = Induction of NO release assessed as nitrite formation at 0.1 mM in phosphate buffer saline at pH 7.4 in presence of 5 mM of L-cysteine measured up to 24 hrs by Griess assay; format: functional
[19] = Induction of NO release assessed as nitrite formation at 0.1 mM in phosphate buffer saline at pH 7.4 in absence of L-cysteine measured up to 24 hrs by Griess assay; format: functional
Oryctolagus cuniculus [20] = assay: Antiglaucoma activity in carbomer-induced New Zealand albino rabbit transient ocular hypertensive model assessed as reduction in IOP at 1% dose administered topically everyday for 5 days measured 1 hr post drug instillation; format: functional, organism-based
Oryctolagus cuniculus [21] = assay: Antiglaucoma activity in carbomer-induced New Zealand albino rabbit transient ocular hypertensive model assessed as reduction in IOP at 1% dose administered topically measured after 24 hrs; format: functional, organism-based
[22] = Rattus norvegicus, Thoracic aorta

SMILES: COc1ccc(C([N+](=O)[O-])[N+](=O)[O-])cc1
- Activity [1]: Dose-dependent effect
- Activity (Oryctolagus cuniculus [2]): -1.1 mmHg
- Activity [3]: 1.3%
- pKa [4]: 3.9
- logD at 20 min [5]: -1.21
- Activity [6]: 4%
- Activity (Oryctolagus cuniculus [7]): Active
- Drug metabolism [8]: Dose-dependent effect
- Activity (Oryctolagus cuniculus [9]): -10.7 mmHg
- EC50 (Thoracic aorta [10]; [22]): 64 µM

SMILES: CC(c1ccc(C(F)(F)F)cc1)([N+](=O)[O-])[N+](=O)[O-]
- Activity [11]: 4.6%
- Activity [12]: inactive
- Activity (Oryctolagus cuniculus [2]): -10.4 mmHg
- Activity [13]: inactive
- Activity [14]: 0.8%
- Activity (Thoracic aorta [15]): 19%
- Activity [16]: Tde
- Activity (Oryctolagus cuniculus [7]): -0.34 mmHg
- logP [17]: 2.92
- Activity (Oryctolagus cuniculus [9]): -6.9 mmHg

SMILES: COCCOCCOCCOc1ccc(C(C)([N+](=O)[O-])[N+](=O)[O-])cc1
- Activity [11]: 13.8%
- Activity [12]: 12.8%
- Activity (Oryctolagus cuniculus [2]): 0.11 mmHg
- Activity [18]: Active
- Activity [13]: 2.6%
- Activity [14]: 2.7%
- Activity [19]: Active
- Activity (Oryctolagus cuniculus [7]): Active
- logP [17]: 1.63
- Activity (Oryctolagus cuniculus [9]): -12.7 mmHg
- EC50 (Thoracic aorta [10]): 55 µM and 264 µM

SMILES: Cc1ccc(C(C)([N+](=O)[O-])[N+](=O)[O-])cc1
- Activity [11]: 1.3%
- Activity [12]: inactive
- Activity (Oryctolagus cuniculus [2]): -6.7 mmHg
- Activity [13]: inactive
- Activity [14]: < 0.5%
- Activity (Thoracic aorta [15]): 24%
- Activity (Oryctolagus cuniculus [20]): Active
- Activity [16]: Tde
- Activity (Oryctolagus cuniculus [7]): -0.04 mmHg
- Activity (Oryctolagus cuniculus [21]): Dose-dependent effect
- logP [17]: 2.69
- Activity (Oryctolagus cuniculus [9]): -4.9 mmHg
- EC50 (Thoracic aorta [10]): 4 µM and 20 µM

SMILES: CC(c1ccccc1)([N+](=O)[O-])[N+](=O)[O-]
- Activity [11]: 2%
- Activity [12]: inactive
- Activity (Oryctolagus cuniculus [2]): -10.5 mmHg
- Activity [13]: inactive
- Activity [14]: < 0.5%
- Activity [16]: Tde
- Activity (Oryctolagus cuniculus [7]): 0.3 mmHg
- logP [17]: 2.34
- Activity (Oryctolagus cuniculus [9]): -5.6 mmHg
- EC50 (Thoracic aorta [10]): 50 µM and 24 µM

SMILES: COc1ccc(C(C)([N+](=O)[O-])[N+](=O)[O-])cc1
- Activity [1]: Dose-dependent effect
- Activity [11]: 25.4%
- Activity [12]: 24.9%
- Activity (Oryctolagus cuniculus [2]): -0.11 mmHg
- Activity [18]: Active
- Activity [13]: 3%
- Activity [14]: 3.5%
- Activity (Thoracic aorta [15]): 40%
- Activity [19]: Active
- Activity (Oryctolagus cuniculus [7]): Active
- logP [17]: 2.2
- Activity (Oryctolagus cuniculus [9]): -7.3 mmHg

SMILES: CCOC(=O)[N-]c1c[n+](N2CCOCC2)no1 [MOLSIDOMINE]
- Activity (Oryctolagus cuniculus [2]): 0.12 mmHg
- Activity (Oryctolagus cuniculus [7]): -0.34 mmHg
- Drug metabolism (Oryctolagus cuniculus [7]): Metabolite detected
- Activity (Oryctolagus cuniculus [9]): -4.6 mmHg
- EC50 (Thoracic aorta [10]; [22]): 18 µM
